This is an account of results in paper PMC9090141 (Pediatric blood & cancer, 2021).

Entries after “also recorded” stand apart in the source; their conditions may differ. Where a name gives a salt, the structure may show the parent alone. Read-outs that look alike come from different tables or passages of the source.

The conditions of data set [1]: adults, 105 mg/m^2, cited from earlier work.
The test system of data set [2] is recurrent or refractory solid and CNS tumors. Description: Radiographic antitumor response. It is filed as in vivo, human.
Data set [3] relates to adults with advanced or metastatic solid tumors. The note with it: cited from earlier work.
Data set [4] deals with pediatric tumor xenograft models. The note with it: in vivo; cited from earlier work.
Where [5] appears, read: 25 patients evaluable for response.

With `COc1cccc(OCCCN)c1-c1cc(Nc2cnc(C#N)cn2)n[nH]1` [prexasertib, Prexasertib mesylate monohydrate], the results for the “mean AUC0–24h” value in data set [1] (ref Hong et al. [11]) and in data set [1] (ref Iwasa et al. [20]) were 1130 ng·h/mL and 1690 ng·h/mL, respectively. For the same compound, the “best overall response (BOR)” value in data set [2] (setting [5]) is given as “stable disease in 3 patients; also recorded: Three patients had a best overall response (BOR) of stable disease”. Moreover, the objective responses result in data set [2] (setting [5]) is given as “no objective responses”. Besides, the “duration of stable disease” value in data set [2] (patient with (anaplastic) ependymoma, dose level 2) was 3 cycles; in data set [2] (patient with hepatocellular carcinoma, dose level 1), 5 cycles; in data set [2] (patient with undifferentiated sarcoma, dose level 3), 5 cycles. Besides, in data set [3] (105 mg/m^2 IV once every 14 days), the “dose-limiting toxicities at the adult RP2D” value is given as “no dose-limiting toxicities”. In data set [3] (IV once every 14 days), the “adult recommended Phase 2 dose (RP2D)” value is on record as 105 mg/m^2. Also, the tolerability entry in data set [4] was “well-tolerated”.
